Data published in patent US10947188B2, “Small molecule ferroptosis inducers” (THE TRUSTEES OF COLUMBIA UNIVERSITY IN THE CITY OF NEW YORK, priority 2016, dated 2021).
Where a SMILES comes first, the peptide text is derived from it. The star is where a group is joined. Cbz = O=C(OCc1ccccc1)*

Experiments:
HT-1080 or BJeLR cells = assay: Analysis of ROS generation (H2-DCFDA flow cytometry); assay type: cell-based
Protocol: Grew 200,000 HT-1080 or BJeLR cells in six-well plates at 37° C. for 16 h. Cells were treated with test compounds, trypsinized, pelleted, and washed once with PBS. For lipophilic or aqueous ROS detection, cells were re-suspended in Hanks' Balanced Salt Solution (HBSS; Life Technologies) containing test compounds as well as C11-BODIPY(581/591) (2 μM) or H2-DCFDA (25 μM), respectively (Life Technologies), and incubated for 10 min at 37° C. Cells were then pelleted, re-suspended in 500 μL HBSS, strained through a 40-μm cell strainer (BD Falcon), and analyzed using a BD Accuri C6 flow cytometer (BD Biosciences). Both dyes were measured in the FL1 channel. Experiments were done in biological triplicates.

[1] = tested on: BJeLR, DRD, BJeHLT, and BJeH; assay: Viability of four engineered BJ cell lines (HRAS G12V selectivity); assay type: cell-based, human; conditions: 48 h
HT-1080 cells = assay: Cell viability assay (Alamar Blue), lethal compounds with or without modulators; assay type: cell-based; conditions: for effect of ferroptosis inhibitors (α-tocopherol, deferoxamine) on lethality: cotreatment
Method in brief: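 HT-1080 cells, 1,000 per well, given twofold 12-point lethal compound series at seeding, 24 h at 37 °C; modulators (100 nM selenite, 1 µM cerivastatin, 100 µg/mL mevalonate) added 24 h before. Alamar Blue 6 h, fluorescence 530/590; viability normalized to vehicle (or modulator) and media wells, typically biological triplicate.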

[2] = tested on: glutathione (GSH and GSSG) in HT-1080 cells; assay: Glutathione-quantification assay; assay type: cell-based; conditions: 5 μM FIN56 with 100 μM α-tocopherol; 10 h
Protocol: Seeded 500,000 HT-1080 cells in a 10-cm dish. Cells were grown at 37° C. for 16 h. On the day of the analysis, cells were cotreated with 100 μM α-tocopherol and either vehicle (DMSO) or a ferroptosis inducer (10 μM erastin, 0.5 μM (1S,3R)-RSL3, or 5 μM FIN56) and incubated for 10 h. Cells were then trypsinized, pelleted, washed once with 400 μL of ice-cold PBS containing 1 mM EDTA, and sonicated. After the cell debris had been pelleted and removed, both oxidized and reduced glutathione in 120 μL of sample was quantified in technical triplicates using the QuantiChrome glutathione assay kit (BioAssay Systems). The glutathione quantity was normalized to the protein concentration measured via Bradford assay (Bio-Rad).

GPX4 [3] = target: T1, GPX4 (Homo sapiens, UniProt P36969); assay: GPX4 enzymatic activity assay in lysates of treated cells (LC-MS); assay type: cell-based; conditions: BJeLR; 5 μM FIN56 for 10 h
T1 construct: Cells were sonicated to make cell lysates that were then cleared by centrifugation; endogenous in cells; host or cells: BJeLR cells (lysate of compound-treated cells)
T1 sequence (P36969 1-197): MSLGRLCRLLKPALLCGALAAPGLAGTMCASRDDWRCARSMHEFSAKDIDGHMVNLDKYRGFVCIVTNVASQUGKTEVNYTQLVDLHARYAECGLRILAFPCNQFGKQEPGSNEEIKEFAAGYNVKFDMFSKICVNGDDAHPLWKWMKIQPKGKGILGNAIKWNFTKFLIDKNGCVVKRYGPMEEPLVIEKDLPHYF
Protocol: Seeded 17 million BJeLR cells in 225-cm^2 tissue culture flasks (Corning). We then added vehicle (0.1% DMSO for 11 h) or test compound (10 μM erastin for 11 h, 0.5 μM (1S,3R)-RSL3 for 2 h, or 5 μM FIN56 for 10 h). The GPX4 enzymatic activity assay was performed as described previously (Yang et al. 2014). Briefly, 10 million cells were resuspended in cell lysis buffer. Cells were sonicated to make cell lysates that were then cleared by centrifugation at 14,000 r.p.m. for 10 min. The protein concentration of the cleared cell lysates was determined via Bradford protein assay. Mixed 200 μg of cellular protein with phosphatidyl choline hydroperoxide, a GPX4-specific substrate, and reduced glutathione, a GPX4 cofactor. The mixture was incubated at 37° C. for 30 min and then subjected to lipid extraction using chloroform:methanol (2:1) solution. The lipid extract was evaporated using a Rotavap and re-dissolved in 100% ethanol before being injected into the LC-MS instrument for 2-linoleoyl1-palmitoyl-sn-glycero-3-phosphocholine (PLPC) quantitation.

GPX4 [4] = assay: Western blotting of GPX4 protein abundance; assay type: cell-based, human
Protocol: Seeded 300,000 cells (HT-1080 or BJeLR) per well in six-well plates. For cotreatment, ferroptosis inducers (10 μM erastin for 11 h, 0.5 μM (1S, 3R)-RSL3 for 2 h, or 5 μM FIN56) and 100 μM α-tocopherol were added to cell culture at the same time, and cells were then incubated for 10 h (FIG. 2E). When other death-modulating compounds (100 nM sodium selenite, 1 μM cerivastatin, 100 μg/mL mevalonic acid, 30 μM C75, or 2 μM cerulenin) were used in cotreatments, cells were pre-incubated with the modulators for 24 h before being treated with ferroptosis inducers for 6 h. Cell lysis, SDS-PAGE and protein transfer to PVDF membrane were performed as previously described (Dixon et al. 2012). We used the following antibodies: anti-human α-tubulin (Santa Cruz Biotechnology, sc-32293, 1:10,000 dilution), anti-human GPX4 (Abcam, ab41787, 1:2,000 dilution), anti-human GPX1 (R&D Systems, AF3798, 1:1,000 dilution), and anti-human SQS (Abcam, ab109723 for full-length, ab195046 for truncated, both at 1:1,000 dilution). Secondary antibodies were from LI-COR (1:3,000 dilution). The PVDF membranes labeled with primary and secondary antibodies were scanned using an Odyssey Imaging System (LI-COR). Experiments were performed in biological triplicates, and the mean±s.e. of intensity was plotted.

N/C(=N\OC(=O)C12CC3CC(CC(C3)C1)C2)c1ccccc1 [CIL41]
ROS accumulation detected using H2-DCFDA (HT-1080 or BJeLR cells): induced ROS accumulation
oncogenic RAS selectivity in the BJ engineered cell line series [1]: did not exhibit oncogenic RAS selectivity
effect of ferroptosis inhibitors (α-tocopherol, deferoxamine) on lethality (HT-1080 cells; HT-1080 cells): strongly suppressed by ferroptosis inhibitors

O=S(=O)(c1ccc2c(c1)C(=NO)c1cc(S(=O)(=O)N3CCCCC3)ccc1-2)N1CCCCC1 [CIL56, 2,7-bis(piperidin-1-ylsulfonyl)-9H-fluoren-9-one oxime]
oncogenic RAS selectivity in the BJ engineered cell line series [1]: retained some degree of selectivity toward oncogenic-RAS-expressing cells
effect of ferroptosis inhibitors (α-tocopherol, deferoxamine) on lethality (HT-1080 cells; HT-1080 cells): suppressed the lethality of low concentrations
suppression of lethality by antioxidants and iron chelators (HT-1080 cells; ferroptosis-sensitive HT-1080 cells): up to 10 fold

O=S(=O)(NC1CCCCC1)c1ccc2c(c1)C(=NO)c1cc(S(=O)(=O)NC3CCCCC3)ccc1-2 [FIN56, N2,N7-dicyclohexyl-9-(hydroxyimino)-9H-fluorene-2,7-disulfonamide]
glutathione depletion [2]: did not deplete glutathione
kinetics of ROS accumulation compared to (1S, 3R)-RSL3 (HT-1080 or BJeLR cells; BJeLR, 5 μM FIN56 vs 0.5 μM (1S, 3R)-RSL3, 25 μM H2-DCFDA): slower to induce the accumulation of ROS
GPX4 activity in cell lysates (GPX4 [3]): loss of GPX4 activity
oncogenic RAS selectivity in the BJ engineered cell line series [1]: greater oncogenic RAS selectivity
potency compared to CIL56 ([1]; BJ cell line series): greater potency
effect of ferroptosis inhibitors (α-tocopherol, deferoxamine) on lethality (HT-1080 cells; HT-1080 cells): fully suppressed
suppression of lethality by mevalonate-pathway modulators (FPP, YM-53601, idebenone) and α-tocopherol (HT-1080 cells; HT-1080 cells, modulatory profiling scheme): potently suppressed by all the compounds
abundance of GPX4 protein (GPX4 [4]; BJeLR, cotreatment with 100 μM α-tocopherol, 10 h, FIN56 5 μM): substantially decreased

CC(C)C[C@@H](C=O)NC(=O)[C@H](CC(C)C)NC(=O)[C@H](CC(C)C)NC(=O)OCc1ccccc1 [MG132, reference compound] (Cbz-Leu-Leu-Leu-aldehyde)
effect on FIN56-induced decrease of GPX4 protein abundance (GPX4 [4]; 5 μM FIN56): did not inhibit GPX4 degradation significantly

C[C@@H]1C[C@@H]([C@H](O)CC2CC(=O)NC(=O)C2)C(=O)[C@@H](C)C1 [cycloheximide, Cycloheximide, reference compound]
amount of GPX4 protein compared to α-tubulin after translation inhibition (GPX4 [4]): did not show substantially decreased amounts of GPX4 protein
